Measured values: PubChem BioAssay AID652269 (Broad Institute, 2013)
Values joined by “and” are separate entries in the source; they are usually repeats but may differ in a detail not shown here. Identical values can stand only once. Active and inactive are the calls of the source.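 How the source made its calls: active means median TrxR activity remaining at the top dose below 80%; inactive means the rest.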

Target: Thioredoxin reductase 1, cytoplasmic (Rattus norvegicus) (UniProt O89049)
Test: Trx/TrxR/NADPH system inhibitors, dose response, counter-screen for PDI inhibitor project, biochemical, rat TrxR1, insulin turbidity, dry powder (AID 652269)
Details: Trx/TrxR/NADPH insulin reduction, turbidity OD650; for TrxR activity remaining % (stronger effect = lower value): at 33.3 µM

| TrxR activity remaining % (stronger effect = lower value) | outcome | SMILES |
| --- | --- | --- |
| 100% (inactive) |  | O=C(NC1CCCC1)C1(CCOc2ccccc2)CCN(Cc2ccc(O)c(Cl)c2)CC1 |
| 100% (inactive) |  | CCOC(=O)c1c(CN2CCN(CCO)CC2)n(-c2ccccc2)c2cc(Br)c(O)cc12 |
| 100% (inactive) |  | CC(C)(C)OC(=O)C1(CCOc2ccccc2)CCN(Cc2ccc(O)c(Cl)c2)CC1 |
| 100% (inactive) and 94% (inactive) |  | CCOC(=O)C1(CCOc2ccccc2)CCN(Cc2ccc(O)c(Cl)c2)CC1 |
| 100% (inactive) |  | CCOC(=O)C1(CCOc2ccccc2)CCN(Cc2ccc(OC)c(Cl)c2)CC1 |
| 100% (inactive) |  | CCOC(=O)C1(CCOc2ccccc2)CCN(C(=O)c2ccc(O)c(Cl)c2)CC1 |
| 100% (inactive) |  | CC(C)OC(=O)C1(CCOc2ccccc2)CCN(Cc2ccc(O)c(Cl)c2)CC1 |
|  | inactive | O=C(Nc1ccccc1)C1(CCOc2ccccc2)CCN(Cc2ccc(O)c(Cl)c2)CC1 |
| 97% (inactive) |  | C/C1=C\C[C@H](OC(=O)c2ccc(O)cc2)/C(C)=C/[C@@H](O)C(C)(C)CCC1 |
| 100% (inactive) |  | CCOC(=O)C1(CCOc2ccccc2)CCN(Cc2ccc(O)cc2)CC1 |
